Data on one molecule can be found in EPA's ToxValDB 9.5 (doi:10.2903/j.efsa.2006.89r).

One series concerns Lepomis macrochirus. Conditions: acute; duration: 96 hours; mortality.
For a further series, the system named is Daphnia magna. Conditions: acute; duration: 48 hours; mortality.
A further series concerns Canidae. The settings on record: oral, Dog Other, clinical signs.
A further series relates to Bibionidae. The settings on record: chronic/long-term; duration: 28 days.
The next series deals with Anas platyrhynchos. The settings on record: oral, mortality.
In a further series the test system is Colinus virginianus. The settings on record: reproduction developmental.
Another series relates to Apis mellifera. The settings on record: acute; duration: 48 hours; dermal; mortality.

Structures are written as SMILES. ≈ marks a conversion by molar mass, not a printed value.

By NOAEL is commonly meant the highest tested level that showed no adverse finding. As for `CCOC(=O)CCN(SN(C)C(=O)Oc1cccc2c1OC(C)(C)C2)C(C)C` [Benfuracarb], the LC50 was 0.017 µg/mL (≈ 0.0414 µM) in the series on Lepomis macrochirus; 0.0099 µg/mL (≈ 0.0241 µM) in the series on Daphnia magna; 15 mg/kg-day in the series on Anas platyrhynchos (short-term, feed). Also, the NOAEL with Canidae (chronic, duration: 2 years) came to 2.5 mg/kg-day; in the series on Canidae (chronic, duration: 6 months), 2.5 mg/kg-day; with Canidae (subchronic, duration: 13 weeks) it was 0.625 mg/kg-day; in the series with Rattus norvegicus (reproduction developmental, reproduction), 1.2 mg/kg-day; with Rattus norvegicus (short-term, duration: 28 days, clinical chemistry) it was 1.8 mg/kg-day. Also, the NOEC in the series on Bibionidae was 0.001 mg/L; in the series with Colinus virginianus it was 8.93 mg/kg-day. Also, the LD50 came to 19.8 mg/kg in the series with Anas platyrhynchos (acute, unspecified); 0.19 µg/piece in the series with Apis mellifera; 205 mg/kg in the series on Rattus norvegicus (acute, oral, mortality).
